Source: ChEMBL document CHEMBL1146792, “Antimitotic activity of glaupalol-related coumarins from Glaucidium palmatum” (Bioorg Med Chem Lett, 2004)
Converted amounts (≈) assume the structure as drawn.

Columns and labels:
KB = experiment: Compound was tested for cytotoxicity against human KB cells; type: functional, cell-based
Tubulin alpha chain = Tubulin alpha chain (Sus scrofa, UniProt P02550); experiment: Inhibition of the polymerization of tubulin; type: functional
Tubulin alpha chain, sequence (P02550 whole entry, looked up): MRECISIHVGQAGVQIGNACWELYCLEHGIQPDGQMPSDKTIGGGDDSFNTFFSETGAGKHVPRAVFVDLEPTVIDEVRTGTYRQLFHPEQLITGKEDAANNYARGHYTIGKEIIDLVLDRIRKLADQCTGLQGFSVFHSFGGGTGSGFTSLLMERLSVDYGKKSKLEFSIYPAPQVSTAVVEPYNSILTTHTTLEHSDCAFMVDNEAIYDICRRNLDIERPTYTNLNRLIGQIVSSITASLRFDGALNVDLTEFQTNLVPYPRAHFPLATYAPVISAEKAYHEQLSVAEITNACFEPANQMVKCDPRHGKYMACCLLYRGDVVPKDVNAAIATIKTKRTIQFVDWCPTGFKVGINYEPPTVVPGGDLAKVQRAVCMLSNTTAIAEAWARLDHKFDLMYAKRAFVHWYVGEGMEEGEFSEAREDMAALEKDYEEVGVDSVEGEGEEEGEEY

Compound: Cc1c(OC2O[C@H](CO)[C@@H](O)[C@H](O)[C@H]2O)ccc2oc(=O)c3c(c12)OC(C)C3(C)C (single isomer, unassigned)
- IC50 (KB): 6.7 mg/L (≈ 15.9 µM)

Compound: Cc1c(O)ccc2oc(=O)c3c(c12)O[C@H](C)[C@@]3(C)CO
- IC50 (KB): 4.3 mg/L (≈ 15.6 µM)

Compound: Cc1c(O)ccc2oc(=O)c3c(c12)O[C@@H](C)[C@@]3(C)CO
- IC50 (KB): 5.7 mg/L (≈ 20.6 µM)

Compound: CC(=O)OC[C@@]1(C)c2c(c3c(C)c(O)ccc3oc2=O)O[C@@H]1C
- IC50 (Tubulin alpha chain): 30 µM
- IC50 (KB): 17 mg/L (≈ 53.4 µM)

Compound: COc1cc(=O)oc2ccc(O)c(C)c12
- IC50 (KB): 4.8 mg/L (≈ 23.3 µM)

Compound: CC(=O)OC[C@@]1(C)c2c(c3c(C)c(O)ccc3oc2=O)O[C@H]1C
- IC50 (Tubulin alpha chain): 10 µM
- IC50 (KB): 23 mg/L (≈ 72.3 µM)

Compound: Cc1c(O)ccc2oc(=O)c3c(c12)OC(C)C3(C)C (centres undefined)
- IC50 (KB): 1.5 mg/L (≈ 5.76 µM)
